The results in this text go back to patent US10975056B2 (GlaxoSmithKline Intellectual Property Development Limited, priority 2016, dated 2021).

Molecules are shown by their SMILES. Where “and” joins values, the source holds several entries; their conditions need not be identical. Equal values may be shown once. Read-outs that look alike come from different tables or passages of the source. Bounds are passed on as bounds.

Experiment [1] has as its system erythroid progenitor cells (EPCs). Put plainly: Fetal hemoglobin (HbF) ELISA in day 7 erythroid progenitor cells.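 Also: for fetal hemoglobin induction normalized to vehicle-treated cells.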 It counts as cell-based, human. The following applies: Homo sapiens, Erythroid progenitor cell, HbF ELISA, day 7 EPCs, 5 days; read-out: EPC ELISA (pEC50 category) (converted). In a few lines: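 CD34+-derived EPCs, 1,000 cells/well, rhEPO 3 U/mL; Compound A 22-pt series, […]; 5 d, 37° C, 5% CO2. Freeze-thaw lysis, anti-HbF capture + HRP anti-HbF, TMB, OD450. Normalized to DMSO wells.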
A general note: In an ELISA, binding on a coated surface is turned into a signal by an enzyme label.

A further experiment has as its target DNMT1 (Homo sapiens, UniProt P26358). Description: DNMT1 biochemical activity, breaklight assay and/or SPA assay.
[2] abbreviates: binned activity in either the breaklight or the SPA assay.
Setting [3] is: binned activity in either the breaklight or the SPA assay, read-out: DNMT1 BioChemical (pIC50 category) (converted).
Where [4] appears, read: breaklight assay and/or SPA assay, repeated experimental runs, read-out: average pIC50 against DNMT1 (converted).

DNMT1, sequence (P26358 whole entry, looked up): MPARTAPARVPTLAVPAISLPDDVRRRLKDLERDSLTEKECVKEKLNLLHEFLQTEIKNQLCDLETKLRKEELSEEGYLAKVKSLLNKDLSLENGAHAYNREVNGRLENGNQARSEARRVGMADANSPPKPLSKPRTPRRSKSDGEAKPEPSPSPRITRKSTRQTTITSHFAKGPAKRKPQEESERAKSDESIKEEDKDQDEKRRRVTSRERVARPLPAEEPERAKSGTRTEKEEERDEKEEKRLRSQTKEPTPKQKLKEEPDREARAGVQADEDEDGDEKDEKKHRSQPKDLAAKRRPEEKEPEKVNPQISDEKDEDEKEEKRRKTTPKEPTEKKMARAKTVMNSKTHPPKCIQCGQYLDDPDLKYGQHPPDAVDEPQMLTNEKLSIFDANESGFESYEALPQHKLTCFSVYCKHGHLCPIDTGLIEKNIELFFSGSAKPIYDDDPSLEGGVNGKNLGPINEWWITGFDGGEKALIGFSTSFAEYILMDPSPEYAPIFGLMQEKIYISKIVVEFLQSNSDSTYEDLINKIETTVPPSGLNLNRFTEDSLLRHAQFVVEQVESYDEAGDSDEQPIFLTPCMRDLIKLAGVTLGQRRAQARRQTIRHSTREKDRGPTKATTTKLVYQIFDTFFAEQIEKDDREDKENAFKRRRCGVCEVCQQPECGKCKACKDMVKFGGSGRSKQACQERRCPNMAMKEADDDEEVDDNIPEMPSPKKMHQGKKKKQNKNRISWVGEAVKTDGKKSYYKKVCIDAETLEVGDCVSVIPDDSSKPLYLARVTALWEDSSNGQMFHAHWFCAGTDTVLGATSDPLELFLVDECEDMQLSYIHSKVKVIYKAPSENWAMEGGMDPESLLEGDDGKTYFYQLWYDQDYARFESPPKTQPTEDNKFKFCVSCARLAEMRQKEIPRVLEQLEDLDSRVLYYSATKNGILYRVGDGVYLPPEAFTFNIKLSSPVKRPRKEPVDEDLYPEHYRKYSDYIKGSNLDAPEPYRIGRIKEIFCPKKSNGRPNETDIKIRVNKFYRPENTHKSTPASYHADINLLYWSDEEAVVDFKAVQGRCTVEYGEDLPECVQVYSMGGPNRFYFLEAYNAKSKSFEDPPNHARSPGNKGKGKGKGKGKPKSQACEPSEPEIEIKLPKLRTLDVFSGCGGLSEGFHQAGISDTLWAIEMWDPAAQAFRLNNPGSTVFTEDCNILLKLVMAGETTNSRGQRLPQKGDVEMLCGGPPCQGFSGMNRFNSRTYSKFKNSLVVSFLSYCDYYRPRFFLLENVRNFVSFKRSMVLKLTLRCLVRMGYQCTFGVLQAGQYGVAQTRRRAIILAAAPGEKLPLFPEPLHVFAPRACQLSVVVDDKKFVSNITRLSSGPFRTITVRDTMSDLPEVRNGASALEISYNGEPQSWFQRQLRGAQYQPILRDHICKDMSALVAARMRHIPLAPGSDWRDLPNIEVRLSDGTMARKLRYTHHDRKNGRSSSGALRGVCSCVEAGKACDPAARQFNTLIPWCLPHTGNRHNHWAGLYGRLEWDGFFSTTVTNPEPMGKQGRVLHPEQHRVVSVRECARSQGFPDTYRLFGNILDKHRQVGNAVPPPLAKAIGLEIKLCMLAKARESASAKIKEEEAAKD

For the molecule `CCc1c(C#N)c(SCc2ccc(N(C)S(C)(=O)=O)cc2)nc(N2CCC(NC3CC3)CC2)c1C#N` [Example 573, N-(4-(((3,5-dicyano-6-(4-(cyclopropylamino)piperidin-1-yl)-4-ethylpyridin-2-yl)thio)methyl)phenyl)-N-methylmethanesulfonamide], in experiment [1], the EC50 was less than 0.316 µM. For the same molecule, the “DNMT1 BioChemical (pIC50 category)” value on DNMT1 (setting [2]) is reported as “D (Category D: ≥6.5)”.

Regarding `CCc1c(C#N)c(SC(C(N)=O)c2ccccc2)nc(N2CCC(N3CCC(F)(F)C3)CC2)c1C#N` (stereo not drawn) [Example 496, 2-((3,5-dicyano-6-(4-(3,3-difluoropyrrolidin-1-yl)piperidin-1-yl)-4-ethylpyridin-2-yl)thio)-2-phenylacetamide], in experiment [1], the EC50 is less than 0.316 µM. Moreover, the IC50 at DNMT1 (setting [3]) is 0.316 to 1 µM; at DNMT1 (setting [4]), 0.316 to 1 µM and 0.398 µM.

In the case of `CCc1c(C#N)c(SCc2ccc(CNC(=O)CN)cc2)nc(N(C)CCN(CC)CC)c1C#N` [Example 520, 2-amino-N-(4-(((3,5-dicyano-6-((2-(diethylamino)ethyl)(methyl)amino)-4-ethylpyridin-2-yl)thio)methyl)benzyl)acetamide], the EC50 in experiment [1] is less than 0.316 µM. Moreover, the “DNMT1 BioChemical (pIC50 category)” value at DNMT1 (setting [2]) was “D (Category D: ≥6.5)”.

For `CCc1c(C#N)c(SCc2ccc(N(C)S(C)(=O)=O)cc2)nc(N2CCOC(CN(CC)CC)C2)c1C#N` (stereo not drawn) [Example 580, N-(4-(((3,5-dicyano-6-(2-((diethylamino)methyl)morpholino)-4-ethylpyridin-2-yl)thio)methyl)phenyl)-N-methylmethanesulfonamide], the EC50 in experiment [1] was less than 0.316 µM. Further, the “DNMT1 BioChemical (pIC50 category)” value on DNMT1 (setting [2]) is recorded as “D (Category D: ≥6.5)”.

Turning to `CCc1c(C#N)c(SCc2ccc(CNC(C)=O)cc2)nc(N2CCC(OC(=O)[C@@H](N)C(C)C)CC2)c1C#N` [Example 289, (S)-1-(6-((4-(Acetamidomethyl)benzyl)thio)-3,5-dicyano-4-ethylpyridin-2-yl)piperidin-4-yl 2-amino-3-methylbutanoate], in experiment [1], the EC50 is 1 to 31.6 µM. In addition, the IC50 at DNMT1 (setting [3]) is 0.316 to 1 µM.

With `CCc1c(C#N)c(SC(C(N)=O)c2ccccc2)nc(N2CC[C@@H](N)[C@@H](F)C2)c1C#N` (relative stereo) [Example 545, rel-2-((6-cis-4-amino-3-fluoropiperidin-1-yl)-3,5-dicyano-4-ethylpyridin-2-yl)thio)-2-phenylacetamide], the EC50 in experiment [1] is less than 0.316 µM. Besides, the IC50 on DNMT1 (setting [3]) was less than 0.316 µM.

As to `CCc1c(C#N)c(SCc2ccc(CNC(=O)CN)cc2)nc(N2CC[C@@H](N)[C@@H](F)C2)c1C#N` (relative stereo) [Example 546, rel-2-amino-N-(4-(((6-(cis-4-amino-3-fluoropiperidin-1-yl)-3,5-dicyano-4-ethylpyridin-2-yl)thio)methyl)benzyl)acetamide], the EC50 in experiment [1] was less than 0.316 µM. In addition, the IC50 at DNMT1 (setting [3]) was 0.316 to 1 µM; at DNMT1 (setting [4]), 0.316 to 1 µM and 0.398 µM.

In the case of `CCc1c(C#N)c(SC(C(N)=O)c2ccccc2)nc(N2CCC(n3ccnc3)CC2)c1C#N` (stereo not drawn) [Example 172, 2-((6-(4-(1H-Imidazol-1-yl)piperidin-1-yl)-3,5-dicyano-4-ethylpyridin-2-yl)thio)-2-phenylacetamide], in experiment [1], the EC50 is less than 0.316 µM. On DNMT1 (setting [3]), the IC50 is 1 to 31.6 µM.

Regarding `CCc1c(C#N)c(SCc2ccc(C#N)c(C)c2)nc(N2CCCN(C)CC2)c1C#N` [Example 295, 2-((4-Cyano-3-methylbenzyl)thio)-4-ethyl-6-(4-methyl-1,4-diazepan-1-yl)pyridine-3,5-dicarbonitrile], the EC50 in experiment [1] was more than 31.6 µM. In addition, the IC50 at DNMT1 (setting [3]) was 0.316 to 1 µM.

For the molecule `CCc1c(C#N)c(SC(C(N)=O)c2ccccc2)nc(N2CCC(NCC(F)F)CC2)c1C#N` (stereo not drawn) [Example 554, 2-((3,5-dicyano-6-(4-((2,2-difluoroethyl)amino)piperidin-1-yl)-4-ethylpyridin-2-yl)thio)-2-phenylacetamide], the EC50 in experiment [1] was less than 0.316 µM. For the same molecule, the “DNMT1 BioChemical (pIC50 category)” value on DNMT1 (setting [2]) was “D (Category D: ≥6.5)”.

In the case of `CCc1c(C#N)c(SC(C(N)=O)c2ccc(C(F)(F)F)cc2)nc(N2CCC(NCC(C)(C)C)CC2)c1C#N` (stereo not drawn) [Example 532, 2-((3,5-dicyano-4-ethyl-6-(4-(neopentylamino)piperidin-1-yl)pyridin-2-yl)thio)-2-(4-(trifluoromethyl)phenyl)acetamide], in experiment [1], the EC50 is less than 0.316 µM. Besides, the “DNMT1 BioChemical (pIC50 category)” value at DNMT1 (setting [2]) is reported as “D (Category D: ≥6.5)”.

On to `CCc1c(C#N)c(SC(C(N)=O)c2ccccc2)nc(N2CC(OP(=O)(O)O)C2)c1C#N` (stereo not drawn) [Example 152, 1-(6-((2-Amino-2-oxo-1-phenylethyl)thio)-3,5-dicyano-4-ethylpyridin-2-yl)azetidin-3-yl dihydrogen phosphate], for which the EC50 in experiment [1] is 1 to 31.6 µM. At DNMT1 (setting [3]), the IC50 was 1 to 31.6 µM.

Take `CCc1c(C#N)c(SC(C(N)=O)c2ccc(S(=O)(=O)NC)cc2)nc(N(C)C)c1C#N` (stereo not drawn) [Example 402]: the EC50 in experiment [1] is 1 to 31.6 µM. Also, the “DNMT1 BioChemical (pIC50 category)” value on DNMT1 (setting [2]) was “D (Category D: ≥6.5)”.

`CCc1c(C#N)c(SCc2ccc(CC(=O)NCCO)cc2)nc(N2CCCN(C)CC2)c1C#N` [Example 343, 2-(4-(((3,5-Dicyano-4-ethyl-6-(4-methyl-1,4-diazepan-1-yl)pyridin-2-yl)thio)methyl)phenyl)-N-(2-hydroxyethyl)acetamide]: the EC50 in experiment [1] is 0.316 to 1 µM. Also, the “DNMT1 BioChemical (pIC50 category)” value at DNMT1 (setting [2]) is on record as “D (Category D: ≥6.5)”.

For the molecule `CCc1c(C#N)c(SCc2ccc3c(c2)CCN(C(C)=O)C3)nc(N(C)C)c1C#N` [Example 92, 2-(((2-Acetyl-1,2,3,4-tetrahydroisoquinolin-6-yl)methyl)thio)-6-(dimethylamino)-4-ethylpyridine-3,5-dicarbonitrile], the EC50 in experiment [1] is 1 to 31.6 µM. Besides, the IC50 on DNMT1 (setting [3]) is 0.316 to 1 µM; on DNMT1 (setting [4]) it was not below 1 µM.

For the molecule `CCc1c(C#N)c(SCc2ccc(C(=O)NCCO)cc2)nc(N(C)C)c1C#N` [Example 292, 4-(((3,5-Dicyano-6-(dimethylamino)-4-ethylpyridin-2-yl)thio)methyl)-N-(2-hydroxyethyl)benzamide], the EC50 in experiment [1] was 1 to 31.6 µM. Further, the IC50 on DNMT1 (setting [3]) is 0.316 to 1 µM.

Take `CCc1c(C#N)c(SC(C(N)=O)c2ccc(OC)cn2)nc(N(C)C)c1C#N` (stereo not drawn) [Example 237, 2-((3,5-Dicyano-6-(dimethylamino)-4-ethylpyridin-2-yl)thio)-2-(5-methoxypyridin-2-yl)acetamide]: the EC50 in experiment [1] was 1 to 31.6 µM. The IC50 at DNMT1 (setting [3]) was 0.316 to 1 µM; on DNMT1 (setting [4]) it was 0.316 to 1 µM and 0.398 µM.

Turning to `CCc1c(C#N)c(S[C@@H](C(N)=O)c2ccccc2)nc(N2CC[C@@H](NC(=O)OC(C)(C)C)[C@H](O)C2)c1C#N` [Example 542, tert-butyl((3R,4R)-1-(6-(((R)-2-amino-2-oxo-1-phenylethyl)thio)-3,5-dicyano-4-ethylpyridin-2-yl)-3-hydroxypiperidin-4-yl)carbamate*], the EC50 in experiment [1] was 0.316 to 1 µM. In addition, the “DNMT1 BioChemical (pIC50 category)” value at DNMT1 (setting [2]) is recorded as “D (Category D: ≥6.5)”.

Consider `CCc1c(C#N)c(SC(C(N)=O)c2ccccc2)nc(N(C)CC(=O)N2CCO[C@@H](CO)C2)c1C#N` (stereo partly drawn) [Example 662, 2-((3,5-dicyano-4-ethyl-6-((2-((R)-2-(hydroxymethyl)morpholino)-2-oxoethyl)(methyl)amino)pyridin-2-yl)thio)-2-phenylacetamide], for which the EC50 in experiment [1] is less than 0.316 µM. Moreover, the “DNMT1 BioChemical (pIC50 category)” value on DNMT1 (setting [2]) is reported as “D (Category D: ≥6.5)”.

In the case of `CCc1c(C#N)c(S[C@@H](C(N)=O)c2ccccc2)nc(N2CC[C@H](NC(=O)OC(C)(C)C)[C@H](O)C2)c1C#N` [Example 537, tert-butyl ((3R,4S)-1-(6-(((R)-2-amino-2-oxo-1-phenylethyl)thio)-3,5-dicyano-4-ethylpyridin-2-yl)-3-hydroxypiperidin-4-yl)carbamate], the EC50 in experiment [1] was 0.316 to 1 µM. Further, the “DNMT1 BioChemical (pIC50 category)” value at DNMT1 (setting [2]) was “D (Category D: ≥6.5)”.

Turning to `CCc1c(C#N)c(SCc2ccc(N(C)C(C)=O)cc2)nc(N2CCCN(C)CC2)c1C#N` [Example 354, N-(4-(((3,5-Dicyano-4-ethyl-6-(4-methyl-1,4-diazepan-1-yl)pyridin-2-yl)thio)methyl)phenyl)-N-methylacetamide], the EC50 in experiment [1] is 1 to 31.6 µM. The IC50 at DNMT1 (setting [3]) is 0.316 to 1 µM.

With `CCc1c(C#N)c(SC(C(N)=O)c2ccccc2)nc(N(C)CCN2CC[C@H](N(C)C)C2)c1C#N` (stereo partly drawn) [Example 517, 2-((3,5-dicyano-6-((2-((S)-3-(dimethylamino)pyrrolidin-1-yl)ethyl)(methyl)amino)-4-ethylpyridin-2-yl)thio)-2-phenylacetamide], the EC50 in experiment [1] was less than 0.316 µM. Besides, the “DNMT1 BioChemical (pIC50 category)” value on DNMT1 (setting [2]) was “D (Category D: ≥6.5)”.

With `CCc1c(C#N)c(SC(C(N)=O)c2ccccc2)nc(N2CCNCC(F)C2)c1C#N` (stereo not drawn) [Example 381, 2-((3,5-Dicyano-4-ethyl-6-(16-fluoro-1,4-diazepan-1-yl)pyridin-2-yl)thio)-2-phenylacetamide], the EC50 in experiment [1] was 1 to 31.6 µM. At DNMT1 (setting [3]), the IC50 was 0.316 to 1 µM.

In the case of `CCc1c(C#N)c(SC(C(N)=O)c2ccccc2)nc(N(C)CCN2[C@H](C)CC[C@H]2C)c1C#N` (stereo partly drawn) [Example 485, 2-((3,5-dicyano-6-((2-((2R,5R)-2,5-dimethylpyrrolidin-1-yl)ethyl)(methyl)amino)-4-ethylpyridin-2-yl)thio)-2-phenylacetamide], in experiment [1], the EC50 is less than 0.316 µM. Moreover, the “DNMT1 BioChemical (pIC50 category)” value on DNMT1 (setting [2]) is on record as “D (Category D: ≥6.5)”.

For the molecule `CCc1c(C#N)c(SCc2ccc(CS(C)(=O)=O)cc2)nc(N2CCC(N)CC2)c1C#N` [Example 499, 2-(4-aminopiperidin-1-yl)-4-ethyl-6-((4-((methylsulfonyl)methyl)benzyl)thio)pyridine-3,5-dicarbonitrile], the EC50 in experiment [1] is less than 0.316 µM. Further, the “DNMT1 BioChemical (pIC50 category)” value on DNMT1 (setting [2]) was “D (Category D: ≥6.5)”.
